Results taken from PubChem BioAssay AID1159559 (GlaxoSmithKline (GSK), 2015).
Calls of active or inactive are those of the source.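 How the source made its calls: active means compounds whose IC50 against parasite growth in infected mouse cells is below 50000 nM; inactive means the rest.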

The compounds below were run on T. cruzi Tulahuen in NIH-3T3, beta-gal fluorescence, 4 d (assay: T. cruzi intracellular growth inhibition, cell-based (AID 1159559)).

SMILES | IC50
CC(=O)Nc1nc(-c2cc(C)ccc2C)c(C)s1 | 200 nM
O=C(Nc1cccc(S(=O)(=O)Nc2ccc(Br)cc2)c1)c1ccc([N+](=O)[O-])s1 | 100 nM
CS(=O)(=O)N1CCC(Nc2ncc(Br)c(Nc3cccc(F)c3C(N)=O)n2)CC1 | 320 nM
COc1ccc(S(=O)(=O)Nc2ccc(C(=O)Nc3nc(-c4ccccn4)cs3)cc2)cc1 | 790 nM
CCNc1cc(-c2ccccn2)nc(Nc2ccc(OC)cc2)n1 | 630 nM
Cc1cc(C)n(-c2nc(NC(C)C)nc(NC(C)(C)C)n2)n1 | 2000 nM
CCc1ccccc1[C@@H](C)NC(=O)c1cnc2c(cnn2CC)c1NC1CCN(C(N)=O)CC1 | 25000 nM
CNc1cncc(C2CCCN2C(=O)Cc2coc3cc(C)ccc23)n1 (centres undefined) | 160 nM
O=C(Nc1ccc(Br)cn1)c1ccc(Cn2cnc([N+](=O)[O-])n2)cc1 | 160 nM
COc1ccc2c(Cl)c(C(=O)N3CCC3)sc2c1Cl | 400 nM
c1ccc2sc(Nc3nc4ncccc4[nH]3)nc2c1 | 1000 nM
COc1ccc2ncc(=O)n(CCN3CC[C@H](NCc4ncc(Cl)c5[nH]ncc45)[C@H](O)C3)c2n1 | 4000 nM
CCC1Oc2cc(S(=O)(=O)N(C)CC(=O)N3CCc4ccccc4C3)c(C)cc2NC1=O (centres undefined) | 200 nM
CC(C)Oc1ccc(C(=O)Nc2ccc(N3CCOCC3)c(Cl)c2)cc1 | 1600 nM
CC(Cn1ccnc1)NC(=O)C1CC1c1cccc(Cl)c1Cl (centres undefined) | 130 nM
c1cc(-c2ncc(-c3ccn[nH]3)s2)ccn1 | 160 nM
CCN(Cc1ccncc1)Cc1ccc(NC(=O)c2cc(-c3ccc(F)cc3)n[nH]2)cc1 | 400 nM
Cc1nn(C)c(Cl)c1CN(Cc1cccnc1)Cc1ccsc1 | 160 nM
c1ccc(Nc2nc3ccccc3[nH]2)nc1 | 7900 nM
N#Cc1ccc(S(=O)(=O)N2CCN(Cc3cccc(-c4ccncc4)c3)CC2)cc1 | 400 nM
CC(=O)Nc1ccc(CN2CCC(N3CC(c4ccccc4)(c4ccccc4)OCC3=O)CC2)cc1 | 13000 nM
CC1CCCN(S(=O)(=O)c2ccc(C(=O)Nc3nc(-c4ccccn4)cs3)cc2)C1 (centres undefined) | 400 nM

SMILES | IC50
O=C(NCC(c1cccs1)N1CCOCC1)c1ccc([N+](=O)[O-])o1 (centres undefined) | 3200 nM
CC(CNS(=O)(=O)c1ccc(OC(F)F)cc1)c1ccc(NC(=O)c2ccncc2)cc1 (centres undefined) | 200 nM
CS(=O)(=O)c1ccc(CC(=O)Nc2nc(-c3ccc(Cl)s3)cs2)cc1 | 400 nM
Cc1sc(C)c(C(F)(F)F)c1CNCCCNc1cc(=O)c2ccccc2[nH]1 | 790 nM
O=C(Nc1n[nH]c(-c2ccccn2)n1)C1CC1c1ccccc1 (centres undefined) | 16000 nM
CCc1cccc(-n2nc(OCC(=O)NC3CCCC3)c3cccnc32)c1 | > 50000 nM (inactive)
O=C(O)[C@H]1C[C@@H]1c1ccc(-c2ccc(CN(CCc3ccccn3)C(=O)C3CCC3)cc2)cc1 | > 50000 nM (inactive)
O=C(Nc1nccs1)c1ccccc1Cn1cc([N+](=O)[O-])cn1 | > 50000 nM (inactive)
COc1ccc(-c2csc(NC(=O)c3ccc([N+](=O)[O-])s3)n2)cc1OC | 100 nM
COc1ccc(CNc2nsc3ccccc23)cc1OC | 6300 nM
COCCn1cnc2cc(NC(=O)C3CCCCC3)cc(C(=O)N3CCc4sccc4C3)c21 | 20000 nM
O=C(NCC1CCCCC1)c1cc(=O)c2ccccc2o1 | 400 nM
CNc1c(C(N)=O)c(-c2ccc3scnc3c2)nn1CC(F)(F)F | 130 nM
CCc1ccc2nc(NC(=O)c3cc(N4CCOCC4)ccn3)sc2c1 | 2500 nM
CC(=O)Nc1ccc(-c2csc(NC(=O)c3ccc([N+](=O)[O-])s3)n2)cc1 | 130 nM
Cc1nn(-c2nc3ccccc3s2)c2c1C(c1ccc(OCC(N)=O)cc1)SCC(=O)N2 (centres undefined) | 5000 nM
COc1cc(NC(=O)Nc2cccc(CNC(=O)OC3CCCCC3)c2)ccc1-c1cnco1 | 1000 nM
O=S(=O)(NCC(c1cccnc1)N1CCN(c2ccc(F)cc2)CC1)c1cccs1 (centres undefined) | 160 nM
O=C(Nc1nc(-c2ccccn2)cs1)c1ccccc1-n1cnnn1 | 3200 nM
COc1ccc(-c2nc3ncccc3o2)cc1NC(=O)c1cccs1 | 2000 nM
CN(CCOc1ccc(Cl)cc1)Cc1nc(N)nc(N(C)C)n1 | 5000 nM
Cn1ccnc1CN1CCc2[nH]cnc2C1c1ccccc1OCc1ccccc1 (centres undefined) | 40000 nM

SMILES | IC50
COc1ccc(NS(=O)(=O)c2cc(NC(=O)c3ccc([N+](=O)[O-])s3)ccc2OC)cc1 | 63 nM
CC1CN(Cc2ccc(C#N)cc2)CCN1c1ccc(NC(=O)c2ccccc2F)cc1 (centres undefined) | 25000 nM
O=C(NCCc1csc(-c2ccc(F)cc2)n1)c1cccs1 | 400 nM
COc1ccc(C2C3CCCCC3(O)CCN2CC(=O)Nc2ccc(Cl)cc2Cl)cc1 (centres undefined) | 2500 nM
O=C(CN1CCN(S(=O)(=O)c2cccc([N+](=O)[O-])c2)CC1)Nc1ccc(Oc2ccccc2)cc1 | 2500 nM
CCN(CC)c1nc(Nc2ccncc2)nc2ccccc12 | 130 nM
CC(C)c1cc(C(=O)N2CCCC(c3cc4ncccc4[nH]3)C2)on1 (centres undefined) | 2000 nM
O=C(Nc1cccc(F)c1)N1CCC(Oc2cccc(-c3cccnc3)c2)CC1 | 630 nM
O=C(C1CCCCC1)N1CCN(c2nnc(-c3ccccc3)c3ccccc23)CC1 | 1000 nM
CC(C)(C)C(=O)NCCc1csc(-c2ccc(F)cc2)n1 | 3200 nM
COc1ccc(C(C)(C)C)cc1S(=O)(=O)n1ccnc1 | 130 nM
CNC(=O)Oc1ccc(C(=O)NCc2ccccc2)cc1OC(=O)NC | 32000 nM
Cc1nc2c(-c3cccs3)c(C)nn2c(NCCO)c1C | 40000 nM
COc1ccc2nccc(NC(=O)C3(OC)CCN(CC(O)c4ccc5c(c4)OCCO5)CC3)c2n1 (centres undefined) | 250 nM
CC1CN(S(=O)(=O)c2ccc(NC(=O)c3cc(C4CC4)nc4c3cnn4C(C)C)cc2)CC(C)O1 (centres undefined) | 630 nM
CC(C(=O)Nc1ccc(Br)cc1)N1CCN(c2ccc([N+](=O)[O-])cc2)CC1 (centres undefined) | 2500 nM
Cc1c([N+](=O)[O-])c(C(=O)Nc2sc3c(c2C#N)CCC(C)C3)nn1C (centres undefined) | 2500 nM
O=c1[nH]c(NCCCNCc2cc(Br)cc(Br)c2)nc2ccsc12 | 630 nM
Cc1cnc(Nc2cc(Cc3ccccc3)nc(NC3CCC(O)CC3)n2)s1 (centres undefined) | 130 nM
CC(C)COC(=O)Nc1ccc(N2CCC(CNS(=O)(=O)c3ccccc3)CC2)c(F)c1 | 10000 nM
CC(Cn1ccnc1)NC(=O)C=Cc1ccc(Cl)cc1 (centres undefined) | 400 nM
COc1ccc(NC(=O)c2ccc(NC(=O)CN(c3ccccc3C)S(C)(=O)=O)cc2)cc1 | 32000 nM

SMILES | IC50
COc1cnc2ccc(=O)n(CCN3CCC(NC(=O)c4ccc(Cl)cc4)CC3)c2c1 | 130 nM
Cc1cccnc1CN1CCN(CCCOc2ccc(-c3ccc(C(N)=O)cc3)cc2)CC1 | 630 nM
O=C1NCCn2ccc(Nc3nc(NC4CCC(O)CC4)ncc3Cl)c21 (centres undefined) | 6300 nM
CCS(=O)(=O)Nc1ccc(C2=NN(C(=O)c3cccs3)C(c3ccccc3OC)C2)cc1 (centres undefined) | 7900 nM
CN(Cc1ccccc1)Cc1nnnn1C1CCN(Cc2ccc(-n3ccnc3)cc2)CC1 | 400 nM
O=C(NCCNc1noc(-c2ccc([N+](=O)[O-])cc2)n1)c1ccc(Cl)cc1 | 2000 nM
Cc1cc(C)c(C#N)c(SCC(=O)c2ccc3c(c2)OCO3)n1 | 2000 nM
COc1ccc(-c2nc3ccncc3c(=O)n2CCOc2ccccc2)cc1 | 630 nM
COc1ccc(-c2ccc3nnc(-c4ccc(O)c(OC)c4)n3c2)cn1 | 1300 nM
CCC(CC)C(=O)Nc1cccc(C(=O)Nc2nnc(C3CCCCC3)s2)c1 | 10000 nM
O=c1cc(CSc2ccc(Cl)cc2)nc(-c2ccccn2)[nH]1 | 1000 nM
Clc1ccc(Sc2cnccc2N2CCOCC2)cc1 | 130 nM
CCN(C)Cc1ccc(N2CCC(NS(=O)(=O)c3ccc4c(c3)CCO4)CC2)nc1 | 630 nM
Cc1nn(C2CCS(=O)(=O)C2)c(C)c1CN(C)C(=O)C=Cc1sc2ccccc2c1Cl (centres undefined) | 630 nM
CCCCc1cc(Nc2cc(C3CCC3)[nH]n2)nc(N2CCC2C(N)=O)n1 (centres undefined) | 3200 nM
N#Cc1cccc(Cc2cc(Nc3cc(C4CC4)[nH]n3)nc(N3CC[C@H]3C(N)=O)n2)c1 | 400 nM
Cc1[nH]nc(-c2nc3ccccc3[nH]2)c1C(=O)NC1CCCNC1 (centres undefined) | 790 nM
Cc1[nH]n2c(=O)c3c(nc2c1-c1ccc(Br)cc1)CCCC3 | 1000 nM
OC[C@@H](Nc1nccc(-c2c(-c3ccc(F)cc3)ncn2C2CCNCC2)n1)c1ccccc1 | 32000 nM
N#Cc1ccccc1S(=O)(=O)N1CCN(C(=O)CNC(=O)c2ccc3c(c2)OCO3)CC1 | 16000 nM
Clc1ccc(C(CC2CCCCO2)Cn2cncn2)c(Cl)c1 (centres undefined) | 400 nM
CCC(=O)N1N=C(c2ccc3c(c2)CCCC3)Sc2c1ncn2C(=O)CC | 6300 nM

SMILES | IC50
FC(F)(F)c1cc(C2CCCN(Cc3c[nH]c4ccccc34)C2)nc2ncnn12 (centres undefined) | 1600 nM
CN1CCN(c2nc(-c3ccc(Cl)cc3)c3c(N)n(C)nc3n2)CC1 | 2000 nM
O=[N+]([O-])c1ccc(C2=CC(c3ccccc3)=NCCN2)cc1 | 500 nM
O=C(Nc1ccccc1C(=O)Nc1ccccn1)c1ccco1 | > 50000 nM (inactive)
NC(=O)c1ccsc1NC(=O)c1ccc([N+](=O)[O-])s1 | 79 nM
CC(=O)Nc1cccc(Nc2ncnc3nc[nH]c23)c1 | > 50000 nM (inactive)
Cc1[nH]n2c(=O)c3c(nc2c1-c1ccc(F)cc1)CCCC3 | 1600 nM
COc1cccc(CCNC(=O)C(c2cn[nH]c2)N2CCN(c3ccc(Cl)cc3)CC2)c1 (centres undefined) | 20 nM
CCCC(=O)N(Cc1ccccn1)c1nc2ccccc2s1 | 130 nM
Cc1cc(NC(=O)CC2CCCCC2)n(-c2nc3c(c(=O)[nH]2)CCC3)n1 | 250 nM
O=c1ccc2ccc(F)c3c2n1C[C@H]3CN1CCN(CC(O)c2cc3c(cn2)OCS3)CC1 (some centres undefined) | 630 nM
CCNc1cc(-c2ccccn2)nc(Nc2ccccc2)n1 | 790 nM
COc1cccc(NS(=O)(=O)c2ccc3[nH]cc(C(=O)NCCC(C)C)c(=O)c3c2)c1 | > 50000 nM (inactive)
Cc1nc(-c2nc(NCc3ccc(Cl)cc3)c3cccnc3c2O)n[nH]1 | 630 nM
Clc1cc(Br)ccc1OCCCCn1ccnc1 | 630 nM
CC1(C)CCC(=Cc2ccc(Cl)cc2)CC1(O)Cn1ccnc1 (centres undefined) | 6.3 nM
O=C(NCCc1csc(-c2ccc(F)cc2)n1)c1ccco1 | 2000 nM
CNC(=O)C1Cc2ccccc2N1C(=O)Cc1ccc(OC)cc1 (centres undefined) | > 50000 nM (inactive)
CN(Cc1cc2ccccc2s1)c1ncc2c(N)nc(N)nc2n1 | 2000 nM
O=C(Nc1ccc(C(F)(F)F)cc1)NC1(C(=O)NCc2ccco2)CCCCC1 | 7900 nM
CN1CCC(N(C)c2nccc(N3CCN(C(=O)c4cccc(-c5cccnc5)c4)CC3)n2)CC1 | 320 nM
